In article PMC10560236, “A protein kinase C α and β inhibitor blunts hyperphagia to halt renal function decline and reduces adiposity in a rat model of obesity-driven type 2 diabetes” (Scientific Reports, 2023):
Several values for one entry are separate records, joined by “and”; a condition that tells them apart may be missing. Identical values can stand only once.

Columns and labels:
[1] = system: ZSF1 obese rats; experiment: 10-week efficacy study with chow dosing; assay type: in vivo, rat
Excerpt: Male ZSF1 (ZSF1-Lepr^faLepr^cp/Crl) lean rats (strain code #379) and ZSF1 obese rats (strain code #378) were obtained from Charles River Laboratories (Wilmington, MA). Male rats for all groups were obtained at 8–9 weeks of age at which time they were switched to high carbohydrate Purina 5008 chow (27% kcal protein, 17% kcal fat, 57% kcal carbohydrates). At 21–22 weeks of age they were then enrolled in the 10 week study. All groups were maintained on normal Purina 5008 chow for the 10 week study except the Cmpd 1 group, which was provided Purina 5008 chow formulated with 0.744g Cmpd 1 per kg chow (approximately 50 mpk/d Cmpd 1 administration; n = 5 Lean, n = 12 Obese, n = 11 Cmpd 1, n = 11 Food matched—see Fig. 4a). The amount of food provided to the Food matched group each week was determined by the estimated food consumption by the Cmpd 1 group the previous week. For all three ZSF1 obese groups, 3 animals were taken down at study mid-point for an interim analysis. All experimental protocols involving animals were reviewed and approved by the Pfizer Inc. Institutional Animal Care and Use Committee (IACUC). All experiments were performed in accordance with relevant guidelines and regulations, and all methods are reported in accordance with ARRIVE guidelines (https://arriveguidelines.org).
Male ZSF1 obese rats that had been maintained on Purina 5008 chow were switched to Purina 5008 chow with or without 0.744 g/kg Cmpd 1 at 22 weeks of age. The study duration was 10 weeks. Estimated food consumption monitored weekly. An additional group of ZSF1 obese rats was included which received an amount of Purina 5008 chow to match the previous week’s estimated food consumption by the Cmpd 1 group. Five male ZSF1 lean littermates served as baseline controls. Intermediate blood samples were taken through tail vein. 24-h urine samples at weeks 0, 5 and 10 were collected from animals in metabolic cages. Animals were sacrificed by CO2 asphyxiation followed by blood collection via cardiac puncture and tissues fixation in 10% neutral buffered formalin for histology. Unfixed inguinal white adipose tissue was also collected at study termination for downstream molecular analyses.
All assays except the insulin assay were run with the ADVIA 1800 Chemistry System (Siemens Medical Systems Diagnostics, Tarrytown, NY, USA). The serum insulin assay was run using a SpectraMax® Plus384 Absorbance Microplate Reader (Molecular Devices San Jose, CA, USA). Siemens Medical System assay kits 10376501, 10311891, 10335892, and 10335891 were used for cholesterol, low density lipoprotein (LDL)-cholesterol, triglycerides, and glucose, respectively. Roche HDL-C Reagent 3rd generation assay kit 4713257190 was used for high density lipoprotein (HDL)-cholesterol assay. For insulin, an ALPCO Diagnostics assay kit 80-INSMS-E01 was used.
Samples of formalin-fixed, paraffin embedded (FFPE) liver and kidney were sectioned and stained for Hematoxylin and Eosin (HE) and evaluated microscopically by a board-certified veterinary pathologist blinded to the treatment groups. In the kidney, microscopic features were assigned an end stage renal disease (ESRD) severity score of 1–5 (minimal to severe) using the following criteria: Grade 1 (minimal): < 10% of parenchyma affected, few glomeruli affected and no Bowman’s capsule thickening with only few protein casts and basophilic tubules observed; Grade 2 (mild): 10–25% of renal parenchyma affected, there is scattered thickening of Bowman’s capsule, +/− synechiation; Grade 3 (moderate): 26–50% of renal parenchyma affected, glomerular and tubulointerstitial changes are present; Grade 4 (marked): 51–75% of renal parenchyma affected, glomerular and tubulointerstitial changes are present; Grade 5 (severe): > 75% of renal parenchyma affected, glomerular and tubulointerstitial changes are present. […]

[2] = system: PKC family members; experiment: Selectivity within PKC family (enzymatic assays); assay type: biochemical; conditions: PKC family members other than α, β, θ, γ
Procedure: (§1) Half maximal inhibitory concentrations of Cmpd 1 were determined by Z’-Lyte biochemical assays (Life Technologies SelectScreen™ Kinase Profiling Services, Thermo Fisher Scientific). Kinome selectivity was determined at 1 μM Cmpd 1 concentration against a panel of 119 kinases. The original kinome tree in Fig. 1b was taken from Ref.[68].

[3] = system: ZSF1 lean and SD rats; experiment: 7-day food consumption and body weight study, Cmpd 1 chow, ZSF1 lean and SD rats; assay type: in vivo, rat; conditions: 7 days
Excerpt: To evaluate food consumption in different rat strains, cohorts of 10 male ZSF1 obese rats, 8 male ZSF1 lean littermate rats, and 10 age-matched male Sprague Dawley (SD) rats were divided into two groups and fed chow with or without 0.744 g/kg Cmpd 1 (Cmpd 1 chow) for 7 days.

[4] = biological target: PKCθ (Homo sapiens, UniProt Q04759); experiment: Z'-Lyte recombinant enzyme assay, PKCθ; assay type: biochemical
Procedure: as §1

[5] = system: ZSF1 obese rats; experiment: 7-day oral gavage study, food consumption and body weight; assay type: in vivo, rat; conditions: 100 mpk daily oral gavage, 7 days
[6] = system: PKCα/β; experiment: In vivo kinase occupancy profiling of spleens (probe-based chemoproteomics); parameters: species or system rat; conditions: Cmpd 1 chow-dosed ZSF1 obese rats; only PKCα/β from over 200 detectable kinases
Procedure: In vivo kinase profiling Spleens from 22–23 week old ZSF1 obese male rats provided no drug Chow or Cmpd 1 chow (n = 2 each) were snap frozen, pulverized, and approximately 100–150 mg of each sample were sent to ActiveX for analysis using a probe-based chemoproteomics platform to measure the fraction of kinase bound versus unbound by an ATP-competitive inhibitor. A kinase bound by an ATP-competitive inhibitor such as Cmpd 1 will be less accessible to a covalent ATP probe, and will consequently have a reduced peak in quantitative mass spectrometry of the tryptic fragment corresponding to its active site pulled down by the covalent biotinylated ATP probe. Lysates from n = 2 animals for each group were combined for the analysis.

[7] = biological target: PKCβ1 (Homo sapiens, UniProt P05771); experiment: Z'-Lyte recombinant enzyme assay, PKCβ1; assay type: biochemical
Procedure: as §1

PKCθ, sequence (Q04759 whole entry): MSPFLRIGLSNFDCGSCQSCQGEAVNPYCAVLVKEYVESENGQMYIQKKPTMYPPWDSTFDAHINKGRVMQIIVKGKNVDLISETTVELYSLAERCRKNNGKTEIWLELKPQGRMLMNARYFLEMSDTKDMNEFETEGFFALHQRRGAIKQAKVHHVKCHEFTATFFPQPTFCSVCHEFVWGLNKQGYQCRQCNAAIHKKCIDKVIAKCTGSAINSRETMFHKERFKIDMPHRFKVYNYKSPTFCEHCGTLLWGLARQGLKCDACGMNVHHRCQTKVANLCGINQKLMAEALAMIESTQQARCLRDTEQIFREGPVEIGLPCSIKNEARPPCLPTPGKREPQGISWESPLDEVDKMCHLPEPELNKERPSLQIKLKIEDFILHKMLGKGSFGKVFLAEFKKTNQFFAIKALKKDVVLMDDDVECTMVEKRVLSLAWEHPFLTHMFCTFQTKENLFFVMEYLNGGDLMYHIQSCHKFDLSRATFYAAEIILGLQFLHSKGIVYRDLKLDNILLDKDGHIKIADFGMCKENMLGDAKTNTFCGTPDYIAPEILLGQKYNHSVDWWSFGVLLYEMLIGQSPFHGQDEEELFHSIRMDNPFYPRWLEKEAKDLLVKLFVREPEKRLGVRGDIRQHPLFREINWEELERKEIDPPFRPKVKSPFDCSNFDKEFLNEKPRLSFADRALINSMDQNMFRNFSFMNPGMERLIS
PKCβ1, sequence (P05771 whole entry): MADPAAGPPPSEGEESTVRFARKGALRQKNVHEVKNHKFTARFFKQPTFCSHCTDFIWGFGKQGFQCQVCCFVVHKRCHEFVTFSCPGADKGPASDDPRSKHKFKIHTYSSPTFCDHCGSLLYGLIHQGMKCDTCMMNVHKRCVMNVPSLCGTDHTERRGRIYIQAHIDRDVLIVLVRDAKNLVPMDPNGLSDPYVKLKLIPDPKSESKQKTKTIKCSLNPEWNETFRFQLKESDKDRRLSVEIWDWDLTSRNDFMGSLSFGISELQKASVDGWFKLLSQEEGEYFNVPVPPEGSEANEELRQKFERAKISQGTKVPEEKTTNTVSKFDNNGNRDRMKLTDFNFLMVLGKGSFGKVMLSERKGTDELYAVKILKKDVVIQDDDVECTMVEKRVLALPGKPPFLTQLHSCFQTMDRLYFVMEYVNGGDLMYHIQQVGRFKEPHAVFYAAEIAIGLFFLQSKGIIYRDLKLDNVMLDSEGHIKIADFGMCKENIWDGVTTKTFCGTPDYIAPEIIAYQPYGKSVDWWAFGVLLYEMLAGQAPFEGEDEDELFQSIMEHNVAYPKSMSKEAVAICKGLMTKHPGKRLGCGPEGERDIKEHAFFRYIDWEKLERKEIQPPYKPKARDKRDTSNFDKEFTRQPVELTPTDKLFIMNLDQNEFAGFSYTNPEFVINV

Compound: Cc1ncc(F)c(Nc2n[nH]c3c2CN(C(=O)N2C[C@@H](C)N(CC4CCOCC4)C[C@@H]2C)C3(C)C)n1 [Cmpd 1, 5-[(2S,5R)-2,5-dimethyl-4-(tetrahydro-2H-pyran-4-ylmethyl)piperazin-l-yl]carbonyl-N-(5-fluoro-2-methylpyrimidin-4-yl)-6,6-dimethyl-1,4,5,6-tetrahydropyrrolo[3,4-c]pyrazol-3-amine]
- Progressive decline in renal function (uMALB:creatinine ratio, 24-h urinary protein excretion) ([1]; 10-week study, same in Food matched group): virtually halted
- Average body weight at study termination ([1]; 10 weeks Cmpd 1 chow): 504 g and 504 ± 35 g
- Estimated food consumption at study termination ([1]; 10 weeks Cmpd 1 chow): 31 g/day
- Body weight less than Lean animals at study termination ([1]; 10 weeks, not statistically different): approximately 7%
- Estimated average food consumption, first three days ([1]; Cmpd 1 chow approx. 50 mpk/day): 22 g/day
- Reduction in food consumption versus Obese group, first three days ([1]; Cmpd 1 chow approx. 50 mpk/day): 27%
- Animals with liver macrovacuolation score of 0 ([1]; after 10 weeks of dosing, score 0–3): five of eight
- ESRD score at study termination ([1]; blinded histology, versus Obese, comparable to Food matched group): reduced comparably
- Serum cholesterol and triglyceride profile versus Obese group ([1]; non-fasting serum): improved
- Serum glucose levels ([1]; non-fasting serum): elevated
- Serum AST versus Obese group ([1]; non-fasting, 5 weeks, statistically significant, not evident at 10 weeks): increased
- Serum ALT versus Obese group ([1]; non-fasting, 10 weeks, statistically significant): reduced
- Serum insulin ([1]; non-fasting, week 5 study midpoint): 0.62 (± 0.35) ng/mL
- ESRD severity grade of representative kidney image ([1]; study endpoint, representative image Fig. 6c): Grade 1 (Grade 1 (minimal): < 10% of parenchyma affected)
- Average body weight at study start ([1]; study start, 21–22 weeks of age): 564 g
- iWAT weight ([1]; study termination): 29 ± 5.5 g
- Increase in adipocyte size in iWAT ([1]; study termination, histology, not in Food matched group): blunted
- Average CD45+ cell staining area in iWAT ([1]; study termination, immunohistochemistry): 0.045 ± 0.025%
- Liver weights ([1]; study termination, primarily reflected overall body weight differences): reduced
- Selectivity against all other PKC family members [2]: greater than 40 fold
- Body weight loss [3]: did not
- IC50 [4]: 28 nM
- Animal body weights [5]: decreased
- Food consumption [5]: decreased
- Kinase occupancy in spleen [6]: > 90%
- IC50 [7]: 11 nM
